Reference: US11806377B2, “Oral use of coriander seed oil for a soothing effect on reactive skin” (Societe d'Exploitation de Produits Pour les Industries …, priority 2018, dated 2023)
Marks after values point to notes of the source that are not given here.

Target: T1, TRPA1 (Homo sapiens, UniProt O75762)
T1 construct: Human sensory neurons were obtained from pluripotent stem cells and cultured in culture plates; endogenous in cells; host or cells: human pluripotent-stem-cell-derived sensory neurons co-cultured with human keratinocytes
Experiment: Protection against activation of TRPA1 following AITC stimulation, Fluo-4 AM calcium fluorescence in keratinocyte-sensory neuron co-culture
Type: cell-based
Details: for Activation of TRPA1 following stimulation with AITC, fluorescence, Mean +/- sem: human keratinocyte-neuron co-culture, 1 mM AITC, 6 replicates, 3 minutes
Method: The in vitro example described here relates to the reduction in the activation of the receptor TRPA1, involved in the induction of sensations of itching/irritation/scratching/pain of the skin following certain stimulations.
Protection Against Activation of TRPA1 (Neuron Experts Service)
Human sensory neurons were obtained from pluripotent stem cells and cultured in culture plates. Human keratinocytes were grown and then seeded above the neurons.
After 19 days of co-culture at 37° C. in a humid atmosphere under 5% CO2, the test products or the positive reference, HC030031 (C18H21N5O3), at 10 μM, and also the fluorescent probe Fluo-4 AM, were added to the co-culture. The Fluo-4 AM probe makes it possible to follow the rapid kinetics of the variation of the intracellular calcium concentration by measuring in real time its fluorescence intensity, and the calcium flux is associated with activation of TRPA1.
After 30 minutes of incubation, the culture medium was removed and the cultures were washed and then reincubated with the test products. Immediately afterwards, they were placed under an inverted microscope and observed in epifluorescence. […] Five seconds after starting the recording, the neurons were stimulated with 10^-3 M AITC (allyl isothiocyanate).
The experiments were carried out in 6 replicates. The fluorescence was analyzed for 3 minutes.
The fluorescence values were expressed as means+/−sem [standard error of the mean=standard deviation/root (number of values)].
For each condition, the percentages of stimulation and of protection were calculated as follows: % stimulation=100×[mean(condition)]/[mean(cells stimulated with AITC)] % protection=100×[mean(condition)−mean(cells stimulated with AITC)]/[mean(unstressed cells)−mean(cells stimulated with AITC)].
Statistical analysis was performed by a one-way ANOVA test with a significance threshold set at 5%, by comparing the conditions in pairs. A difference between the efficacy of two products was considered: • significant if p<0.05; • “at the limit of significance” if 0.05≤p<0.1; • and not significant if p>0.1.

[1] = HC030031 10 μM, coriander seed oil 0.001%

T1 sequence (O75762 whole entry): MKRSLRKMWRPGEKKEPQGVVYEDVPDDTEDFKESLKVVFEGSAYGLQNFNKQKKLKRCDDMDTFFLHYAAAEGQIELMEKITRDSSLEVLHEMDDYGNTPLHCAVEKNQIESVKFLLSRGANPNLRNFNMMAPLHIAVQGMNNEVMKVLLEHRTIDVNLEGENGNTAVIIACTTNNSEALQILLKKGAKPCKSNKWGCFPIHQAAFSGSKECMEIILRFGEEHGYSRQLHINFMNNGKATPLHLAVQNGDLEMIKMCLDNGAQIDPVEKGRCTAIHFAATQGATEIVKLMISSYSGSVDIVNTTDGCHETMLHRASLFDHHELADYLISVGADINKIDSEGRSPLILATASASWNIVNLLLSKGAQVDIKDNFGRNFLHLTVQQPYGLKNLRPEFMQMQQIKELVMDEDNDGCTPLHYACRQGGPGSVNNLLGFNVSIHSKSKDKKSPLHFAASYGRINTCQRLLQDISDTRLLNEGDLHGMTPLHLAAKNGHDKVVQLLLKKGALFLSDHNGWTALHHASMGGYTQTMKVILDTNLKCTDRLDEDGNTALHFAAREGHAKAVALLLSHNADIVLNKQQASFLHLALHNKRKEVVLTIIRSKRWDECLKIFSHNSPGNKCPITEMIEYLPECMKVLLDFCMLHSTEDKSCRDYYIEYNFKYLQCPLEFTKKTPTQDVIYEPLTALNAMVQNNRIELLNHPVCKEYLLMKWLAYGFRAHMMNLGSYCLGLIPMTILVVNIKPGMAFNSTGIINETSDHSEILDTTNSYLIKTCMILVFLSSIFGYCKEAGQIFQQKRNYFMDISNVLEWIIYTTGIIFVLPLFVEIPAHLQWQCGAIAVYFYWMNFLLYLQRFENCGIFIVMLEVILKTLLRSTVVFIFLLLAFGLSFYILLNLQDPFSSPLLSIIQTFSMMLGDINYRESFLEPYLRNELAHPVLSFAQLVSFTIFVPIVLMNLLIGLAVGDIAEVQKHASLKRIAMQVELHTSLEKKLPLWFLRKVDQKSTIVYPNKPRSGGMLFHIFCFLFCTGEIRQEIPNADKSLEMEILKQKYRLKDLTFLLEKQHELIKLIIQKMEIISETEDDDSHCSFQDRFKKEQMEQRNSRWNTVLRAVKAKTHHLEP

reduction of the activation of TRPA1 (AITC-stimulated keratinocyte-neuron co-culture, coriander seed oil 0.001%) [%]	% protection (against 1 mM AITC stimulation, HC030031 10 μM, coriander seed oil 0.001%) [%]	% stimulation (relative to cells stimulated with 1 mM AITC, HC030031 10 μM, coriander seed oil 0.001%) [%]	SMILES	Activation of TRPA1 following stimulation with AITC, fluorescence, Mean +/- sem [1]	increase in the activation of TRPA1 vs non-stimulated cells (keratinocyte-neuron co-culture, AITC stimulation) [%]
88	88	25	CC(C)c1ccc(NC(=O)Cn2cnc3c2c(=O)n(C)c(=O)n3C)cc1 [HC030031]	8537 +/− 553*** AU	–
–	–	–	C=CCN=C=S [AITC, allyl isothiocyanate]	34035 +/− 1910*** AU	585
